From PubChem BioAssay AID1963424 (Molecular Pharmacology Branch, DTP, NCI, 2024)
Values joined by “and” are separate entries in the source; they are usually repeats but may differ in a detail not shown here. Equal values may be shown once.

Tested on: 327498-153-R-J2-PDC complex spheroid growth, % test/control
Assay: Anticancer human tumor 327498-153-R-J2-PDC patient-derived uterine carcinosarcoma cell line growth inhibition [Asc]
Settings: for viability, T/C: stronger effect = lower value
Summary of the method: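 Concentration series start at each agent's clinical Cmax, or at 10 microM when none is established, and drop in half-log steps; agents are applied alone or together to complex spheroids built with HUVEC and hMSC.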
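Also: spheroids exposed to compound for 7 days after 3 days of growth.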
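For viability, T/C in this document: 100% = DMSO vehicle control wells.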

SMILES: C=C(F)C(=O)N1CCN(c2nc(OCC3CCCN3C)nc3c2CCN(c2cccc4cccc(Cl)c24)C3)CC1CC#N (configuration not stated) + CCN1C(C(=O)NC23CCC(C(=O)O)(CC2)CC3)C(c2cccc(Cl)c2F)C2(C(=O)Nc3cc(Cl)ccc32)C12CCCCC2
- IC50 (curve of first compound, second compound 0.03 µM): 552 nM
- IC50 (curve of first compound, second compound 0.0949 µM): < 31.6 nM
- IC50 (curve of first compound, second compound 0.3 µM): < 31.6 nM
- IC50 (curve of first compound, second compound 0.949 µM): < 31.6 nM
- IC50 (curve of first compound, second compound 3 µM): < 31.6 nM
- viability, T/C (second compound 0.03 µM, first compound 0.0316 µM): 56.4%
- viability, T/C (second compound 0.03 µM, first compound 0.1 µM): 55.3%
- viability, T/C (second compound 0.03 µM, first compound 0.316 µM): 59.8%
- viability, T/C (second compound 0.03 µM, first compound 1 µM): 42.5%
- viability, T/C (second compound 0.03 µM, first compound 3.16 µM): 6.79%
- viability, T/C (second compound 0.03 µM, first compound 10 µM): 0.13%
- viability, T/C (second compound 0.0949 µM, first compound 0.0316 µM): 49.1%
- viability, T/C (second compound 0.0949 µM, first compound 0.1 µM): 38.6%
- viability, T/C (second compound 0.0949 µM, first compound 0.316 µM): 38.5%
- viability, T/C (second compound 0.0949 µM, first compound 1 µM): 25.4%
- viability, T/C (second compound 0.0949 µM, first compound 3.16 µM): 0.52%
- viability, T/C (second compound 0.0949 µM, first compound 10 µM): 0.11%
- viability, T/C (second compound 0.3 µM, first compound 0.0316 µM): 23.3%
- viability, T/C (second compound 0.3 µM, first compound 0.1 µM): 18.5%
- viability, T/C (second compound 0.3 µM, first compound 0.316 µM): 12.5%
- viability, T/C (second compound 0.3 µM, first compound 1 µM): 10.9%
- viability, T/C (second compound 0.3 µM, first compound 3.16 µM): 0.07%
- viability, T/C (second compound 0.3 µM, first compound 10 µM): 0.11%
- viability, T/C (second compound 0.949 µM, first compound 0.0316 µM): 6.62%
- viability, T/C (second compound 0.949 µM, first compound 0.1 µM): 5.04%
- viability, T/C (second compound 0.949 µM, first compound 0.316 µM): 5.41%
- viability, T/C (second compound 0.949 µM, first compound 1 µM): 1.84%
- viability, T/C (second compound 0.949 µM, first compound 3.16 µM): 0.03%
- viability, T/C (second compound 0.949 µM, first compound 10 µM): 0.12%
- viability, T/C (second compound 3 µM, first compound 0.0316 µM): 1.83%
- viability, T/C (second compound 3 µM, first compound 0.1 µM): 2.77%
- viability, T/C (second compound 3 µM, first compound 0.316 µM): 1.2%
- viability, T/C (second compound 3 µM, first compound 1 µM): 0.65%
- viability, T/C (second compound 3 µM, first compound 3.16 µM): 0.14%
- viability, T/C (second compound 3 µM, first compound 10 µM): 1.2%

SMILES: C=C(F)C(=O)N1CCN(c2nc(OCC3CCCN3C)nc3c2CCN(c2cccc4cccc(Cl)c24)C3)CC1CC#N (configuration not stated)
- viability, T/C (compound 0.0316 µM): 68.8% and 82.4% and 85%
- viability, T/C (compound 0.1 µM): 61.8% and 69.6% and 74.7%
- viability, T/C (compound 0.316 µM): 56.1% and 67.6% and 66%
- viability, T/C (compound 1 µM): 48.2% and 59.2% and 62.2%
- viability, T/C (compound 3.16 µM): 19.4% and 14.3% and 24.8%
- viability, T/C (compound 10 µM): 0.22% and 0.23% and 0.25%
- IC50 (curve of compound): 654 nM and 1240 nM and 1270 nM
